Assay results: US20040248958A1, “Heterocyclic amide derivatives” (priority 2001, published 2004)
Like-named read-outs stand apart in the source and are kept apart here.

Test: logP determination by HPLC on reversed-phase column (EEC Directive 79/831 Annex V.A8)
Assay type: physicochemical
Conditions: reversed-phase HPLC column (C18), preparation examples
Method: The logP values indicated were determined in accordance with EEC Directive 79/831 Annex V.A8 by means of HPLC (High Performance Liquid Chromatography) on a reversed-phase column (C 18). Temperature: 43° C. (a) Eluents for determination in the acidic range: 0.1% aqueous phosphoric acid, acetonitriie; linear gradient from 10% acetonitrile to 90% acetonitrile. (b) Eluents for determination in the neutral range: 0.01 molar aqueous phosphate buffer solution, acetonitrile; linear gradient from 10% acetonitrile to 90% acetonitrile.

[1] = pH 2.3, HPLC C18, 43° C., read-out: logP (pH 2.3)

| chromatographic logP [1] | chromatographic logP (pH 7.5, HPLC C18, 43° C., read-out: logP (pH 7.5)) | SMILES |
| --- | --- | --- |
| 1.97 |  | CCc1ccc(C(=O)Nn2c(-c3cc(C)cc(C)c3)nc(C)c2C)cc1 [Example I-1] |
|  | 2.17 | Cc1ccc(C(=O)Nn2c(-c3ccccc3)nc(C)c2C)cc1 [Example I-2] |
| 0.96 |  | Cc1cc(C)cc(-c2nc(C)c(C)n2N)c1 [II-1] |
| 1.69 |  | Cc1ccc(S(=O)(=O)Nn2c(-c3cc(C)cc(C)c3)nc(C)c2C)cc1 [IV-1] |
